{
  "source": "ChEMBL document CHEMBL1201862",
  "about": "“PubChem BioAssay data set” (2004)",
  "key": {"[1]": {"target": "Genome polyprotein (Hepatitis C virus, UniProt Q2Q167)", "assay": "disruption of hepatitis C core self-association – biochemical, TR-FRET, dose response (AID 2159);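 also: blocks dimerization of HCV core protein measured by TR-FRET between tagged core106 pairs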", "set-up": "species or system Hepacivirus hominis"}, "[2]": {"target": "Protein-tyrosine kinase 2-beta (Homo sapiens, UniProt Q14289)", "sequence (Q14289 whole entry)": "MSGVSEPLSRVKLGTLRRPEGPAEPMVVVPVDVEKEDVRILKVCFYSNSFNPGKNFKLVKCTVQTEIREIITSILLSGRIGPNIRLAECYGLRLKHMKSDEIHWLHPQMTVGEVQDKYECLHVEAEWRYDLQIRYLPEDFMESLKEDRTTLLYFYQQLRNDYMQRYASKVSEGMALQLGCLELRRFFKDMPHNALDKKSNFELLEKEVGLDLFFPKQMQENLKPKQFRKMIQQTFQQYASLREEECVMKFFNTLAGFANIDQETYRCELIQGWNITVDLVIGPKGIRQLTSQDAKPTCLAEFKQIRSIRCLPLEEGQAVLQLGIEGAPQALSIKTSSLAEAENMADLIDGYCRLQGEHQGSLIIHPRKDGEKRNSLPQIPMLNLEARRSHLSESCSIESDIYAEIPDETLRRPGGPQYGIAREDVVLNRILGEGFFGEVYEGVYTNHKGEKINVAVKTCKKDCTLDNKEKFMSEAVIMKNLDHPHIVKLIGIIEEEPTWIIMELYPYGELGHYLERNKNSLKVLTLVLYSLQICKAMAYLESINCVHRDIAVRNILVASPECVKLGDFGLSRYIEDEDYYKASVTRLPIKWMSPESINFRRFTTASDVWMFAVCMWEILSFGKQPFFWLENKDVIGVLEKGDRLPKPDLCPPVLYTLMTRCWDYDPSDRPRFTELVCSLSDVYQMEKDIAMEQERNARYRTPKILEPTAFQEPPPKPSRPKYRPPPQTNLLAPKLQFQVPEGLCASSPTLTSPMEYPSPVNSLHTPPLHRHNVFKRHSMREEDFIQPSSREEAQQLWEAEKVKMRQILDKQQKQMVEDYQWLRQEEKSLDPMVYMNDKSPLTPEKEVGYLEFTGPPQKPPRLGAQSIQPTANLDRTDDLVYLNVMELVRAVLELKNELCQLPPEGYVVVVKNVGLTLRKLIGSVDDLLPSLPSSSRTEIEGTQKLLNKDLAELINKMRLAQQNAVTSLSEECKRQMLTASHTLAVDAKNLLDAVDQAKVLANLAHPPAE"}, "[3]": {"target": "T1, Sphingosine 1-phosphate receptor 2 (Homo sapiens, UniProt O95136)", "T1 sequence (O95136 whole entry)": "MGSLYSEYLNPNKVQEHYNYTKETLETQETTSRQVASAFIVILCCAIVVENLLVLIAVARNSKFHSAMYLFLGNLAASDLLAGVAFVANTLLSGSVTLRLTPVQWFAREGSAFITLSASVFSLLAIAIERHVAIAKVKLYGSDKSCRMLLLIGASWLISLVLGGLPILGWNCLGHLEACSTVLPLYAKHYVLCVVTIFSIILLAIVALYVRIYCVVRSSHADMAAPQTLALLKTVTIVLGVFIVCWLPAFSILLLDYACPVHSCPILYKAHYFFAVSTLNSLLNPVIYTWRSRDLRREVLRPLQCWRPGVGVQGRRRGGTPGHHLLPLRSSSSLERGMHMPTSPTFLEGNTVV", "assay": "Dose Response Cell Based Assay for Agonists of the S1P2 Receptor. [Related pubchem assays: 729, 736, 843 ]", "assay_type": "functional"}, "[4]": {"assay": "Luminescence Cell-Based Dose Confirmation HTS to Identify Activators of 5'UTR Stem-Loop Driven Alpha-Synuclein mRNA Translation in H4 Neuroglioblastoma Cells. [Related pubchem assays: 1829 (Project Summary), 1814 (Primary HTS)]", "assay_type": "functional"}, "[5]": {"assay": "Luminescent dose response cell-based high throughput screening assay for inhibitors of the Janus kinase 2 mutant JAK2V617F. [Related pubchem assays: 1446 (Primary screen.), 1521 (Confirmation assay.), 1486 (Counter screen.)]", "assay_type": "functional"}, "[6]": {"assay": "Luminescence Cell-Based Dose Response HTS to Identify Activators of Luciferase Translation or Activity in H4 […] Cells. [Related pubchem assays: 1829 (Project Summary), 1814 (Primary HTS)]", "assay_type": "functional"}, "[7]": {"system": "H4", "assay": "Luminescence Cell-Based Dose Response HTS to Identify Activators of 5'UTR Stem-Loop Driven Prion Protein mRNA Translation in H4 Neuroglioblastoma Cells. [Related pubchem assays: 1829 (Project Summary), 1814 (Primary HTS)]", "assay_type": "functional", "settings": "Homo sapiens"}, "[8]": {"target": "Peroxisome proliferator-activated receptor gamma/Nuclear receptor corepressor 2 (Homo sapiens, UniProt P37231+Q9Y618)", "sequence (P37231 whole entry)": "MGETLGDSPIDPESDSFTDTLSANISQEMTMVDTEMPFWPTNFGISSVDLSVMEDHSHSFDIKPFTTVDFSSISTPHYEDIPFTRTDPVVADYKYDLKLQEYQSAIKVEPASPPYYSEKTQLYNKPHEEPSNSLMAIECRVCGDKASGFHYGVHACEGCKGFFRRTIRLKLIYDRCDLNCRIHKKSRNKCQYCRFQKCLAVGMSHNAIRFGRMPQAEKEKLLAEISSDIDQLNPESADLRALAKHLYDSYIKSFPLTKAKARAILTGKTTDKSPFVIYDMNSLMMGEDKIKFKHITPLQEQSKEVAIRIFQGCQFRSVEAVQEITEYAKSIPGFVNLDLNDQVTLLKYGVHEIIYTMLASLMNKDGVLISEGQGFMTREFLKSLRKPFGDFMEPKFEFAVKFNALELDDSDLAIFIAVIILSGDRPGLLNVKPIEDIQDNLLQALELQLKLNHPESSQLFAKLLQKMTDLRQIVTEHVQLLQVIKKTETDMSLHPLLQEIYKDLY", "sequence (Q9Y618 whole entry)": "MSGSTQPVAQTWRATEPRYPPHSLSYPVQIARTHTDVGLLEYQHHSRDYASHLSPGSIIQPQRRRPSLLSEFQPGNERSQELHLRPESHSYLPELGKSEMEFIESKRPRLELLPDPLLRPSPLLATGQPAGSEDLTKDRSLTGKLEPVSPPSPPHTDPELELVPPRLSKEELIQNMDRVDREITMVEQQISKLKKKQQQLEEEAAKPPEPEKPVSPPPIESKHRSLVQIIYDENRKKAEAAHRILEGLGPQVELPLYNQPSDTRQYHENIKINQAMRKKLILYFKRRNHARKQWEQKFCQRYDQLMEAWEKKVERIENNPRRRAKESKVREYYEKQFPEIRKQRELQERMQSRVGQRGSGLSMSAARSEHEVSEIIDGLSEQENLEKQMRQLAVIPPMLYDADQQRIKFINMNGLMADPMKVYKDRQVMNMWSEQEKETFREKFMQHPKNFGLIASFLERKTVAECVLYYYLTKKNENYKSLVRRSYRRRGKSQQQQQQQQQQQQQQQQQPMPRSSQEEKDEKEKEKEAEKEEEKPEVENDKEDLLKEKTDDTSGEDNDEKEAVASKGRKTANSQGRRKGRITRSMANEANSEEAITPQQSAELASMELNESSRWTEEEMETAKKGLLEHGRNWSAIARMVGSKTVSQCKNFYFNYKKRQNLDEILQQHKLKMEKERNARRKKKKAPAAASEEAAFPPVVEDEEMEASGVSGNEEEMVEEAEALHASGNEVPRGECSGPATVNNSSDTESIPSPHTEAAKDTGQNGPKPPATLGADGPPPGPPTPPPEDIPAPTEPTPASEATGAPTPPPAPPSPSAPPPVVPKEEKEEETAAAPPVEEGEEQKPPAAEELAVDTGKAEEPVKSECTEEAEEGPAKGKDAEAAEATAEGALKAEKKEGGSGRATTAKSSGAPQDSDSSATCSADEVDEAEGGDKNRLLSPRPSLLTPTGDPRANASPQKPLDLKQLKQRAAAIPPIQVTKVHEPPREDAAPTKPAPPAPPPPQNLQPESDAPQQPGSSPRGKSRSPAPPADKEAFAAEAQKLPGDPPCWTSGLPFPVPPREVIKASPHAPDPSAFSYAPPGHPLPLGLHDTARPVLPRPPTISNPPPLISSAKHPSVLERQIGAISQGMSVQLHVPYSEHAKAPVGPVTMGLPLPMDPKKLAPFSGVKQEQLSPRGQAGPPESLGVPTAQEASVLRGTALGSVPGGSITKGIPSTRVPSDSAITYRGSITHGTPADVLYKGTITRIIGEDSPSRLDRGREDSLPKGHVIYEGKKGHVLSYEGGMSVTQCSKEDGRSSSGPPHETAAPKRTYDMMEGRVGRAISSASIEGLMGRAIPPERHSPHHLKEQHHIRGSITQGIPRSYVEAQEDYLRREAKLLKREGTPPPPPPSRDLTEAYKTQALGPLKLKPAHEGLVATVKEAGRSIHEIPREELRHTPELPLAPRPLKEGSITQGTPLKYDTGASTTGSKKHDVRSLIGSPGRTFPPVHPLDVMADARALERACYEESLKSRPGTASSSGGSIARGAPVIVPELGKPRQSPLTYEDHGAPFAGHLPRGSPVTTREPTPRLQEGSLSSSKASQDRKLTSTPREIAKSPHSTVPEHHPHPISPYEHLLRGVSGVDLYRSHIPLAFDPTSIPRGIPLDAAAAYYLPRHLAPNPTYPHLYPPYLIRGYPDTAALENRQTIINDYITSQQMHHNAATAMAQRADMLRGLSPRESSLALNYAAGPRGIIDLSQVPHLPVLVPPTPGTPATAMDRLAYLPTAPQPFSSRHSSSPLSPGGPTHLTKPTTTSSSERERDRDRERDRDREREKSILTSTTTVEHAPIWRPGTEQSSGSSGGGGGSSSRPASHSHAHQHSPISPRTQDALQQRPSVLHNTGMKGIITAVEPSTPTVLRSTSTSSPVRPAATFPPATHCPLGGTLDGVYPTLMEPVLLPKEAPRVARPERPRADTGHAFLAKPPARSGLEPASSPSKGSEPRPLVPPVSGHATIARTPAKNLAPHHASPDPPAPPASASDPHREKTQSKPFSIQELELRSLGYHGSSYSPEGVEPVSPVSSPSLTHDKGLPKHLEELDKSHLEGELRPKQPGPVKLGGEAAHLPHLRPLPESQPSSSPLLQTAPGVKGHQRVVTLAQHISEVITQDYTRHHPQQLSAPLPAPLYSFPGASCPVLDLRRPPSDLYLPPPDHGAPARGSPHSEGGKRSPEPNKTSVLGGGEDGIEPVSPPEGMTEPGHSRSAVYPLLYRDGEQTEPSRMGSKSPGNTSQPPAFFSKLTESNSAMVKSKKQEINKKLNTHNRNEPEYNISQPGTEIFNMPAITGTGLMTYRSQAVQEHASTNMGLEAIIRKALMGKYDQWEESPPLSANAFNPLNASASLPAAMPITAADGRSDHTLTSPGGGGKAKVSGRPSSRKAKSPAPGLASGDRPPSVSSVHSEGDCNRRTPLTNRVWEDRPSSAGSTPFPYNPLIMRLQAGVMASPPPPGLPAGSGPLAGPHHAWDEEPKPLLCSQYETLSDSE", "assay": "Counterscreen for NR2E3 inverse agonists: TR-FRET-based biochemical high throughput dose response assay to identify inverse agonists of the interaction between peroxisome proliferator-activated receptor gamma (PPARg) and nuclear receptor co-repressor 2 (NCOR2).", "assay_type": "functional"}, "[9]": {"target": "Photoreceptor-specific nuclear receptor (Homo sapiens, UniProt Q9Y5X4)", "sequence (Q9Y5X4 whole entry)": "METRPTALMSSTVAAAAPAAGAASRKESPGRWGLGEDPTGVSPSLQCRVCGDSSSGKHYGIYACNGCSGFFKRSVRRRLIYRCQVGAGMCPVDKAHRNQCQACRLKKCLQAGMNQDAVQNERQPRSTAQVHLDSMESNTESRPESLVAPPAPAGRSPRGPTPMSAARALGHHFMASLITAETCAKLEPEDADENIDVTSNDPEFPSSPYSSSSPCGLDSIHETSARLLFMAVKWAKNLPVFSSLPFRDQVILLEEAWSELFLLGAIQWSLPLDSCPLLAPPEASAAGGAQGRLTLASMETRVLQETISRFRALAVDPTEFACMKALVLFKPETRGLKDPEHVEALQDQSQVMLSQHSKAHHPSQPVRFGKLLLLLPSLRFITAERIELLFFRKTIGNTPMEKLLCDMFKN", "assay": "ligands suppressing NR2E3 nuclear receptor activity – biochemical, TR-FRET, dose response (AID 463256)", "assay_type": "functional"}, "[10]": {"target": "T1, Sphingosine 1-phosphate receptor 2", "assay": "Dose Response Cell Based Assay for Antagonists of the S1P2 Receptor. [Related pubchem assays: 856, 736 ]", "assay_type": "functional"}, "[11]": {"assay": "viability of PTEN-deleted HCT116 cells – cell-based, HCT116 PTEN knockout, dose response (AID 1047);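 also: HCT116 colon tumor cells with PTEN knocked out; cells exposed to compound for 60 hours before readout; potency for loss of cell viability measured by luminescence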", "assay_type": "functional"}, "[12]": {"assay": "viability of HCT116 lacking mutant beta-catenin – cell-based, human colon tumor, dose response (AID 1045);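 also: HCT116 colon tumor cells with beta catenin knocked out; cells exposed to compound for 60 hours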", "assay_type": "functional"}, "[13]": {"assay": "viability loss in HeLa cells – cytotoxicity control for MgcRacGAP inhibitor project, dose response (AID 624300)", "assay_type": "functional"}, "[14]": {"assay": "NIH-3T3 fibroblast cytotoxicity, dose response, cytotoxicity control, cell-based, fluorescence, Alamar Blue, secondary assay (AID 2327);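 also: NIH-3T3 mouse fibroblasts cultured with fluconazole at 8 µg/mL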", "assay_type": "functional"}, "[15]": {"system": "BJ", "assay": "BJ-TERT-LT-ST fibroblast viability loss – cell-based, RAS-independent, luminescence, dose response (AID 1935);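 also: BJ fibroblasts immortalized with TERT plus LT and ST oncogenes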", "assay_type": "functional", "settings": "Homo sapiens"}, "[16]": {"system": "Streptococcus", "assay": "GAS UMAA2166 growth inhibition – luminescence, BacTiterGlo, counter-screen for streptokinase expression inhibitor project, dose response (AID 1915);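 also: potency for reduction of bacterial viability or growth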", "assay_type": "functional, organism-based"}, "[17]": {"system": "Streptococcus sp. 'group A'", "assay": "Streptococcus pyogenes SK(-)GAS viability under kanamycin – luminescence, BacTiterGlo, confirmation, counter-screen for streptokinase expression inhibitor project, dose response (AID 1900)", "assay_type": "functional, organism-based"}, "[18]": {"target": "T2, Rac GTPase-activating protein 1 (Homo sapiens, UniProt Q9H0H5)", "T2 sequence (Q9H0H5 whole entry)": "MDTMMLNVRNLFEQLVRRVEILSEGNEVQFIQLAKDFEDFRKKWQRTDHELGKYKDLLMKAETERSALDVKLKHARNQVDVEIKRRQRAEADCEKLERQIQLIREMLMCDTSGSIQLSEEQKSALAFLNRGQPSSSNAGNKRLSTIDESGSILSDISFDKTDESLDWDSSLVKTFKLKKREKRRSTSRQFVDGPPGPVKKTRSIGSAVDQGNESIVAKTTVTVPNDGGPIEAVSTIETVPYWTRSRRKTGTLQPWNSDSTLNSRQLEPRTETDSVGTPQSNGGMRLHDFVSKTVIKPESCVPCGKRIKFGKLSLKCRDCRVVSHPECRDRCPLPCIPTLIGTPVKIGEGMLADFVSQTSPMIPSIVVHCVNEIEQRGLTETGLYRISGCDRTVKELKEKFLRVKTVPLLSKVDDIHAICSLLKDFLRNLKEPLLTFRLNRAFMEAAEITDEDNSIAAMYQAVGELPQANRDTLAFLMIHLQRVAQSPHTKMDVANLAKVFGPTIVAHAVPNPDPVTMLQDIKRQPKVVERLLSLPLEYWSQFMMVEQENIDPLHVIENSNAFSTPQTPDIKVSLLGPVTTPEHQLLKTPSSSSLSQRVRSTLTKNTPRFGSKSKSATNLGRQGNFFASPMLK", "assay": "blockers of MgcRacGAP-driven Rac1 GTP hydrolysis – biochemical, ADP Hunter fluorescence, primary and confirmatory, confirmation (AID 624330)", "assay_type": "functional"}, "[19]": {"assay": "HEK-293T viability loss after treatment – luminescence, T-cell screen hits, cytotoxicity control for TCR NF-kB inhibitor project, dose response (AID 489026);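 also: cells exposed to compound about 14 hours before the viability readout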", "assay_type": "functional, cell-based"}, "[20]": {"assay": "DRD fibroblast viability loss – cell-based, non-viral oncogenic, luminescence, dose response (AID 1934)", "assay_type": "functional", "settings": "Homo sapiens"}, "[21]": {"system": "BJ", "assay": "growth inhibition of engineered Ras-driven BJ cells – cell-based, alamar blue fluorescence, cherrypicked samples, dose response (AID 2631)", "assay_type": "functional", "settings": "Homo sapiens"}, "[22]": {"system": "BJ", "assay": "cells", "assay_type": "functional, cell-based", "settings": "Homo sapiens"}, "[23]": {"system": "BJ", "assay": "BJ-TERT fibroblast viability loss – cell-based, RAS-independent, luminescence, dose response (AID 1933)", "assay_type": "functional", "settings": "Homo sapiens"}, "[24]": {"target": "Nonstructural protein 1 (Influenza A virus, UniProt Q194T2)", "sequence (Q194T2 whole entry)": "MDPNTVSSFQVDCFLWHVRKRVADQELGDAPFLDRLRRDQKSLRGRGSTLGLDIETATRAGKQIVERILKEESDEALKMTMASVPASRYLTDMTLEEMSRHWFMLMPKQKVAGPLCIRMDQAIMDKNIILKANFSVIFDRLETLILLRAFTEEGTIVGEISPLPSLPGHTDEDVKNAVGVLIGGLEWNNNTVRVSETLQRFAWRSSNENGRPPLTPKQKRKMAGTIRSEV", "assay_type": "functional, Influenza A virus (A/California/07/2009(H1N1))"}, "[25]": {"assay": "fluconazole-exposed Candida albicans growth modulators – fluorescence, retest, confirmation (AID 2467)", "assay_type": "functional, cell-based"}, "[26]": {"target": "T3, Streptokinase A (Streptococcus pyogenes serotype M1, UniProt P10520)", "T3 sequence (P10520 whole entry)": "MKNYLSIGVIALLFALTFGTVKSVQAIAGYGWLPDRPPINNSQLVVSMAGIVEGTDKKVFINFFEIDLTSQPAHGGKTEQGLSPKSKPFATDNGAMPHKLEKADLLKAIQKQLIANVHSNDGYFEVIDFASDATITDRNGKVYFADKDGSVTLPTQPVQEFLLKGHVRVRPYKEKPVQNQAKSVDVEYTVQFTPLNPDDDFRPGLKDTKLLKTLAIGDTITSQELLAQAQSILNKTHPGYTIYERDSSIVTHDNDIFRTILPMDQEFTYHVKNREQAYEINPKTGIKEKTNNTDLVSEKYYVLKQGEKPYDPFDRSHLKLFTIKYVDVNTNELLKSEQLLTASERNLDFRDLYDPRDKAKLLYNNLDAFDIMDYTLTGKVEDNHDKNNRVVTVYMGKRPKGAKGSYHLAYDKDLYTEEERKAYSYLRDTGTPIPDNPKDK", "assay": "viability-normalized secreted streptokinase activity reduction – plasminogen activation absorbance, OD405, dose response (AID 1914);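 also: secreted streptokinase activity via plasminogen activation per viability signal from cell pellet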", "assay_type": "functional, Streptococcus pyogenes M1 GAS"}, "[27]": {"target": "Eukaryotic translation initiation factor 4E (Mus musculus, UniProt P63073)", "assay": "blockers of eIF4G binding by eIF4E – biochemical, TR-FRET, dose response (AID 855);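 also: potency for disrupting eIF4E binding to eIF4GI seen as loss of FRET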", "assay_type": "functional"}},
  "note": "Activity calls are given as the source filed them.",
  "data": [
    {"smiles": "COc1ccc(N2CCN(C(=O)c3ccc4c(c3)NC(=O)C(CSCc3ccc(C)cc3)N4)CC2)cc1", "note": "(stereo not given)", "values": [
      {"measurement": "IC50", "setting": "[1]", "value": "> 49.8 µM (not active)"}
    ]},
    {"smiles": "O=C(N/N=C1/C(=O)c2cccc3cccc1c23)c1ccc(Cl)cc1", "values": [
      {"measurement": "IC50", "setting": "[2]", "value": "4.31 µM (active)"}
    ]},
    {"smiles": "CS(=O)(=O)NCc1nnc(SCC(=O)NC2CCCCC2)n1-c1ccc(F)cc1", "values": [
      {"measurement": "EC50", "setting": "[3]", "value": "> 50 µM (not active)"}
    ]},
    {"smiles": "Cc1nc(O)c(C(=O)/C=C/c2ccccc2F)c2c1CCCC2", "values": [
      {"measurement": "EC50", "setting": "[4]", "value": "9.92 µM (active)"},
      {"measurement": "IC50", "setting": "[5]", "value": "1.52 µM (active)"},
      {"measurement": "EC50", "setting": "[6]", "value": "> 120 µM (not active)"},
      {"measurement": "EC50", "setting": "[7]", "value": "> 120 µM (not active)"}
    ]},
    {"smiles": "COc1ccc2[nH]c(C(=O)Nc3ccc(F)cc3Br)cc2c1", "values": [
      {"measurement": "IC50", "setting": "[8]", "value": "> 39.9 µM (not active)"},
      {"measurement": "IC50", "setting": "[9]", "value": "> 39.9 µM (not active)"}
    ]},
    {"smiles": "O=C(O)c1sc2cc(C(F)(F)F)cnc2c1-c1ccco1", "values": [
      {"measurement": "IC50", "setting": "[10]", "value": "> 30 µM (not active)"}
    ]},
    {"smiles": "CCN1/C(=C/c2ccc3ccccc3[n+]2CC)C=Cc2ccccc21", "values": [
      {"measurement": "EC50", "setting": "[11]", "value": "0.249 µM (active)"},
      {"measurement": "EC50", "setting": "[12]", "value": "0.167 µM (active)"},
      {"measurement": "CC50", "setting": "[13]", "value": "19 µM (active)"},
      {"measurement": "EC50", "setting": "[14]", "value": "12 µM (active)"},
      {"measurement": "EC50", "setting": "[15]", "value": "3.1 µM (inconclusive)"},
      {"measurement": "EC50", "setting": "[16]", "value": "35 µM (active)"},
      {"measurement": "EC50", "setting": "[17]", "value": "4.74 µM (active)"},
      {"measurement": "IC50", "setting": "[18]", "value": "46.5 µM (active)"},
      {"measurement": "IC50", "setting": "[19]", "value": "33.1 µM (inactive)"},
      {"measurement": "EC50", "setting": "[20]", "value": "3.27 µM (active)"},
      {"measurement": "EC50", "setting": "[21]", "value": "1.89 µM (active)"},
      {"measurement": "IC50", "setting": "[10]", "value": "3.1 µM (active)"},
      {"measurement": "EC50", "setting": "[22]", "value": "2.73 µM (active)"},
      {"measurement": "EC50", "setting": "[23]", "value": "1.21 µM (active)"},
      {"measurement": "IC50", "setting": "[24]", "value": "12.8 µM (active)"},
      {"measurement": "EC50", "setting": "[25]", "value": "0.639 µM (active)"},
      {"measurement": "EC50", "setting": "[26]", "value": "> 150 µM (not active)"},
      {"measurement": "IC50", "setting": "[27]", "value": "33.8 µM (inactive)"}
    ]},
    {"smiles": "Cc1cc2c(s1)c1cnn(CC(=O)NCCc3ccccc3)c(=O)c1n2C", "values": [
      {"measurement": "IC50", "setting": "[8]", "value": "2.65 µM (active)"},
      {"measurement": "IC50", "setting": "[9]", "value": "2.52 µM (active)"}
    ]}
  ]
}
